From patent publication US12411143B2, “CD146 and uses thereof as a biomarker and as a therapeutic target in the diagnosis and treatment of fibrosis” (ASSISTANCE PUBLIQUE HÔPITAUX DE MARSEILLE, priority 2018, dated 2025)

Key:
Format in all cases: cell-based, human
ECFC [1] = assay: ECFC proliferation assay; settings: siRNA or plasmid transfection, in the presence of GM6001 10 μM
Procedure: A: Effect of siRNA targeting I10-sCD146 and I5-13-sCD146 on proliferation of ECFC. Experiments were performed in the presence of GM6001 10 μM. Results are mean values of 4 different experiments and representative pictures of the cells in one experiment are given.
B: Effect of over-expression of I10-sCD146 (p-I10-sCD146), I5-13-sCD146 (p-I5-13-sCD146) and shed sCD146 (p-shed sCD146) realized by plasmid transfection on proliferation of ECFC. Experiments were performed in the presence of GM6001 10 μM.
C: Effect of recombinant proteins I10-sCD146, I5-13-sCD146 and shed sCD146 50 ng/ml on the proliferation of ECFC. Experiments were performed in the presence of GM6001 10 μM. Results are mean values of 4 different experiments.
Experiments were performed as previously described (Stalin et al., 2013).

ECFC [2] = assay: Permeability of ECFC monolayer to dextran-FITC; settings: siRNA or plasmid transfection
Procedure: D: ECFC were transfected with siRNA targeting ADAM10 or Tace and with a control siRNA (C). The permeability of the ECFC monolayer grown on semi-permeable filters was determined using dextran-FITC. Results are the mean values+/−SEM of 3 experiments.
E: ECFC were transfected with plasmid vectors encoding ADAM10 (p-ADAM10) or Tace (p-Tace) and with a control plasmid vector (C). The permeability of the ECFC monolayer grown on semi-permeable filters was determined using dextran-FITC. Results are the mean values+/−SEM of 3 experiments. *: P<0.05, **: P<0.01, ***: P<0.001, experimental vs Control.
ECFC were seeded at 60,000 cells per well on membrane inserts (porosity 1 μm) of a 24-multiwell double chamber system (Multiwell Insert System, BD Biosciences, Le Pont de Claix, France) after siRNA transfection or not. Confluent endothelial monolayers were then incubated for 24 h in EGM-2 medium in the presence or absence of the different forms of sCD146. The FITC-dextran (sigma) was added at the apical surface of the cells and was allowed to migrate for 1.5 h at 37° C. Basolateral FITC-dextran was then measured using a Cytofluor Series 4000 Fluorescence (PerSeptiveBiosystems, Framingham, MA).

ECFC [3] = assay: Soluble CD146 secretion in ECFC (ELISA)
Procedure: A: Secretion of soluble CD146 (CD146s) was determined in ECFC in response to 24 h of treatment with 20 ng/ml TNF, 20 ng/ml VEGF, 5 ng/ml TGFb, 50 ng/ml netrin, 50 ng/ml Wnt5a and 50 ng/ml Wnt3a.
B: The effect of the pan-inhibitor GM6001 was tested on CD146s secretion in ECFC cells by ELISA. Experiments were performed in control conditions and after treatment with 20 ng/ml TNF for 24 h. […] A dose-dependence of GM6001 effect was performed between 1 and 50 μM. Results are the mean values+/−SEM of 5 experiments.
C: The effect of furin convertase inhibitor (IF) was tested at 50 μMon CD146s secretion in control condition and after treatment with TNF 20 ng/ml for 24 h. Results are the mean values+/−SEM of 3 experiments.
D: Effect of TIMP-1, -2 and -3 (1 μg/ml) was tested on CD146s secretion in control condition and after treatment with 20 ng/ml TNF. Results are the mean values+/−SEM of 3 experiments. *: P<0.05, **: P<0.01, ***: P<0.001, experimental vs Control
A: ECFC were transfected with siRNA targeting the short (shCD146) or the long (IgCD146) isoforms of CD146 and with a control siRNA (C). Soluble CD146 (sCD146) secretion was determined. Results are the mean values+/−SEM of 4 different experiments.
B: ECFC were transfected with siRNA targeting MT1-MMP, MMP2, ADAM10 or Tace and with a control siRNA (C). Soluble CD146 (sCD146) secretion was determined. In one condition, cells were treated with GM6001 10 μM. Results are the mean values+/−SEM of 5 different experiments.
A: ECFC were transfected with siRNA targeting the short (shCD146) or the long (IgCD146) isoforms of CD146 and with a control siRNA (C) and soluble CD146 (sCD146) secretion was determined in basal condition and in cells treated for 24 h with TNF 20 ng/ml. Results are the mean values +/−SEM of 5 different experiments.
B: ECFC treated for 24 h with 20 ng/ml TNF were transfected with siRNA targeting Tace, ADAM10, MT1-MMP and with a control siRNA (C) and soluble CD146 (sCD146) secretion was determined. Results are the mean values +/−SEM of 3 different experiments.
Endothelial Colony Forming Cells (ECFC) were cultured in endothelial EGM-2 MV medium as previously described (Delorme B et al., 2005).
SiRNA designed to silence the different isoforms of sCD146 were generated. A control siRNA was also used in each experiment. siRNAs were introduced in endothelial cells using the Silence magmagnetofection kit as described by the manufacturer (OZ Biosciences).
Shed sCD146 was assayed using the commercial ELISA assay (CY-QUANT sCD146, Biocytex, Marseille). Plates were coated with specific mouse monoclonal anti-human CD146 F(ab′)2 fragments. 10 μL of sera was added to each well and incubated for 30 minutes at room temperature. After incubation, the plates were washed five times, followed by incubation with a specific HRP-coupled monoclonal antibody (7A4-HRP, 1 mg/ml, Biocytex, Marseille, France) at a 1:1 000 dilution in a specific diluent for 30 minutes at room temperature and then washed five times. 200 μL of tetramethylbenzidine (TMB) substrate was incubated for approximately 20 minutes at room temperature. The colorimetric reaction was then stopped by the addition of 100 μL of an acid solution. The intensity of the signal was directly related to the concentration of sCD146 initially contained in the sample. For detecting the two spliced isoforms of sCD146 (I5-13-sCD146 and I10-sCD146), the same immunoassay was used (Biocytex). The protocol was modified only for the second antibody (detection antibody) that was replaced by the anti-I5-13-sCD146 or anti-I10-sCD146 antibodies coupled to HRP.

| Substance | proliferation of ECFC (ECFC [1]) | permeability of ECFC monolayer to dextran (ECFC [2]) | reduction of sCD146 secretion by siRNA (ECFC [3]; 24 h TNF 20 ng/ml) | effect of siRNA on sCD146 secretion (ECFC [3]; control condition) | reduction of sCD146 secretion by siRNA (ECFC [3]; control condition) |
| --- | --- | --- | --- | --- | --- |
| siRNA targeting I5-13-sCD146: siRNA targeting I5-13-sCD146; sens UGGACAUCUAGACGGCUGCUCGUUU (antisense AAACGAGCAGCCGUCUAGAUGUCCA; chemistry not given here) | inhibited the proliferation of ECFC | – | – | – | – |
| siRNA targeting I10-sCD146: siRNA targeting I10-sCD146; sens CCCUCCCUCUGGGUAGAGACCAGGU (antisense ACCUGGUCUCUACCCAGAGGGAGGG; chemistry not given here) | inhibited the proliferation of ECFC | – | – | – | – |
| IgCD146 siRNA: siRNA targeting the long isoform of CD146; sens 5′CCCGUCUCGUAAGACCGAACUUGUA (antisense UACAAGUUCGGUCUUACGAGACGGG; chemistry not given here) | – | significantly increased endothelial permeability | about 60% | reduced sCD146 secretion | around 75% |
